Consider two molecules from paper PMC2409900 (British Journal of Cancer, 2004).

Values joined by “and” are separate entries in the source; they are usually repeats but may differ in a detail not shown here. Equal entries are not always repeated.

A short description of data set [1]: Stability of 667 COUMATE in vehicle. The following applies: HPLC. In kind it is physicochemical.
Data set [2] is described as follows: Ex vivo stability in plasma and whole blood (667 COUMATE/667 COUMARIN ratio). The class given is in vitro ADME, rat. The protocol:
Whole blood was removed from female Wistar rats, pooled, centrifuged (2800 g, 4°C, 15 min) and separated into RBCs and plasma. […] 667 COUMATE was also incubated with plasma only. […] Whole blood was acidified by addition of 1 M (pH 3) citrate buffer (9 : 1, v v^−1). […] Plasma was separated from other blood constituents by centrifugation (2800 g, 4°C, 15 min) and the radioactivity was counted.
(§1) The coefficients of variation (interday and intraday) were <10%.

Data set [3] is described as follows: Pharmacokinetic study: plasma levels after single i.v. or p.o. dose. The following applies: for half-life: t1/2β. The method, then:
Female Wistar (155–165 g) rats were purchased from Charles River UK Ltd (Margate, Kent, UK) and housed in a dedicated animal facility. Rats received RM1 rodent maintenance diet (SDS, Kent, UK), water ad libitum and were maintained in positive pressure isolators under a 12 h light–dark cycle. These experiments were approved by the Imperial College Ethical Review Committee and met the standards required by the UKCCCR guidelines ([Workman et al, 1998]). […] Three rats were used for each time point. Rats were subjected to terminal anaesthesia (halothane) and blood was removed by cardiac puncture at 2.5, 5, 15, 30 and 45 min and 1, 3, 8, 16 and 24 h after i.v. administration. […] Plasma and RBCs were prepared from whole blood by centrifugation (2800 g, 4°C, 15 min). […] 7-Hydroxycoumarin (3 μg ml^−1) was used as an internal standard. The organic phase was decanted to a fresh tube and evaporated to dryness under a stream of air at room temperature. […] Briefly, RBCs were mixed with blank plasma (1 : 1, v v^−1) and mixed by inversion in order to reconstitute ‘whole blood’. 7-Hydroxycoumarin (3 μg ml^−1) was added to the whole blood (500 μl). […] Samples were thawed, vortexed for a further 5 min, centrifuged (15 000 g, 15 min) and the supernatant was removed and filtered ([…], acrodisc CR PTFE). The diethyl ether was removed under a stream of air. […] The residues were stored at −20°C in preparation for HPLC analysis.
Pharmacokinetic parameters were calculated using WinNonlin software (Pharsight Corporation, Mountview, CA, USA). The area under the curve (AUC) was calculated using the linear trapezoidal method with extrapolation of the terminal phase to infinity. Other parameters calculated were as follows: elimination rate constant (β); total body clearance (Cl)=dose/AUC; volume of distribution (Vd)=Cl/β; elimination half-life (t1/2β)=0.693/β; bioavailability (%F)=(AUCoral/AUCi.v.) × 100.

For data set [4], the system named is rat liver STS. The following applies: cited from earlier work.
Data set [5] is described as follows: In vivo uptake into RBCs after single p.o. or i.v. dose. The following applies: female, Wistar, 10 mg kg^−1, rat.
Excerpt: Three rats were used for each time point.
as §1

Data set [6] relates to rat RBCs. Put plainly: Ex vivo uptake of 667 COUMATE / 667 COUMARIN by RBCs in whole blood. The class given is in vitro ADME. The method, then:
Whole blood was removed from female Wistar rats, pooled, centrifuged (2800 g, 4°C, 15 min) and separated into RBCs and plasma. […] 667 COUMATE was also incubated with plasma only. Duplicate samples were maintained at 37°C for 0.5, 1, 3 and 24 h on rollers. Whole blood was acidified by addition of 1 M (pH 3) citrate buffer (9 : 1, v v^−1). […] Plasma was separated from other blood constituents by centrifugation (2800 g, 4°C, 15 min) and the radioactivity was counted.
as §1

Data set [7] concerns E1S-stimulated nitrosomethylurea-induced mammary tumours. The following applies: cited from earlier work.
On the set-up of data set [8]: method as in Ireson et al, 2003. The following applies: by 4 h; ref Ireson et al, 2003; cited from earlier work.
The test system of data set [9] is STS. Also noted: method as in Ireson et al, 2003. The following applies: ref Ireson et al, 2003; cited from earlier work.
Where [10] appears, read: female, Wistar, rat, in vivo, iv, 10 mg/kg.
Where [11] appears, read: female, Wistar, rat, in vivo, po, 10 mg/kg.

In the case of `NS(=O)(=O)Oc1ccc2c3c(c(=O)oc2c1)CCCCC3` [667 COUMATE, 6-oxo-8,9,10,11-tetrahydro-7H-cyclohepta-[c] [1] benzopyran-3-O-sulphamate], the stability in vehicle result in data set [1] (THF : PEG-400 : water 1:6:3, on ice for up to 6 h) was “stable”. For the same molecule, in data set [2] (plasma, 3 h incubation), the “parent compound remaining in plasma” value is “below the limit of detection”. In data set [2] (whole blood, after 48 h incubation), the “parent compound remaining in whole blood” value is given as “could still be detected”. The Cl in data set [3] (10 mg kg^−1 bolus i.v., rat, Cl=dose/AUC) is 53.5 ± 2.6 mL/h; in [3] (10 mg kg^−1 p.o., rat, Cl=dose/AUC), 54 mL/h and 54.2 ± 2.4 mL/h. The molecule further gave a t1/2β in data set [3] (10 mg kg^−1 p.o., rat plasma) of 1.97 ± 0.3 h. Also, the Vd in data set [3] (10 mg kg^−1 p.o., rat, Vd=Cl/β) came out at 0.1532 ± 0.0187 L/kg; in data set [3] (setting [10]), 0.0939 ± 0.0029 L/kg. The molecule also yielded a concentration at 8 h in data set [3] (female, Wistar, rat, in vivo, 10 mg kg^−1) above 100 ng/mL. Besides, the bioavailability in [3] (female, Wistar, rat, in vivo, 10 mg kg^−1, %F (bioavailability), 10 mg kg^−1 p.o. vs i.v., rat, (AUCoral/AUCi.v.) × 100) is 95%. Besides, the AUC in data set [3] (setting [10]) was determined as 35800 ± 1300 ng·h/mL; in data set [3] (setting [11]) it was 34400 ± 1100 ng·h/mL. The Cmax in data set [3] (setting [10]) worked out at 22800 ± 600 ng/mL; in data set [3] (setting [11]), 11900 ± 400 ng/mL. Further, the figures for the k el in data set [3] (setting [10]) and in data set [3] (setting [11]) were 0.000167 s⁻¹ and 8.33e-05 s⁻¹, respectively. The molecule also showed a clearance in [3] (female, Wistar, rat, in vivo, iv, 10 mg/kg, Cl, 10 mg kg^−1 bolus i.v., Cl=dose/AUC) of 0.883 mL/min. The half-life in [3] (female, Wistar, rat, in vivo, iv, 10 mg/kg, 10 mg kg^−1 bolus i.v., rat plasma) is 1.2 ± 0.1 h; in data set [3] (female, Wistar, rat, in vivo, po, 10 mg/kg, 10 mg kg^−1 p.o., rat plasma), 2 h. Also, the “time at which maximum level in plasma was attained” value in [3] (oral dosing 10 mg kg^−1, rat) is on record as 30 min. Also, the “time for which 667 COUMATE could be detected in plasma” value in data set [3] (single 10 mg kg^−1 i.v. or p.o. dose, rat) is given as “up to 8 h”. Also, the “inhibition of rat liver STS” value in [4] (10 mg kg^−1, ref Purohit et al, 2000, 2001) is 93%. In addition, in data set [4] (rat, hepatic STS, ref Purohit et al, 2001), the “duration of STS inhibition in vivo after a single dose” value is “up to 24 h”. The concentration at 30 min in data set [5] (iv, 30 min after i.v. administration) was determined as 19000 ng/mL; in data set [5] (po, 30 min after p.o. administration), 12000 ng/mL. The “percentage of agent retained by the RBCs” value in data set [6] (24 h after addition to whole rat blood) worked out at 48%. Further, the “percentage of agent taken up by RBCs (two independent analytical methods)” value in data set [6] (added to rat whole blood ex vivo) is listed as “more than 70%”. For the same molecule, the “uptake into RBCs after preincubation with acetazolamide” value in data set [6] (whole rat blood preincubated 30 min with acetazolamide (100 μM)) is 50%. Besides, the “percentage of agent associated with the RBC fraction” value in [6] (whole rat blood, 30 min incubation, 37°C, 10 μg ml^−1, HPLC) is reported as “more than 80%”. The “inhibition of STS activity in mammary tumours” value in data set [7] (nitrosomethylurea-induced mammary tumours in rats, ref Purohit et al, 2000) is “almost completely inhibit STS activity”. The “growth of E1S-stimulated tumours” value in data set [7] (nitrosomethylurea-induced rat mammary model, ref Purohit et al, 2000, 2001) is “causes a reduction in the growth”. Further, in data set [8], the “percentage of agent removed on incubation with plasma” value is given as 80%.

Regarding `O=c1oc2cc(O)ccc2c2c1CCCCC2` [667 COUMARIN, 3-Hydroxy-6-oxo-8,9,10,11-tetrahydro-7H-cyclohepta-[c] [1] benzopyran], the “level of degradation product 667 COUMARIN in vehicle” value in data set [1] (667 COUMATE in vehicle on ice for up to 6 h) is “below the limit of detection”. Also, the “formation as metabolite of 667 COUMATE in vivo” value in data set [3] (rat plasma after i.v. or p.o. 667 COUMATE) is reported as “only a minor metabolic product”. Moreover, the STS inhibitory activity result in data set [9] is on record as “devoid of any STS inhibitory activity”. The “effect of acetazolamide preincubation on uptake into RBCs” value in data set [6] (whole rat blood preincubated with acetazolamide (100 μM)) is “did not affect this uptake”. In addition, in [6] (whole rat blood, 667 COUMARIN 10 μg ml^−1, no acetazolamide), the “uptake into RBCs” value came out at 50%.

The term bioavailability denotes the share of a dose that reaches the circulation, judged against a reference dose that is usually intravenous. As a reminder, the AUC is the area under the concentration-time curve, a measure of exposure. A low value points to less exposure. As usually defined, the Cmax is the highest concentration seen after dosing. The term half-life denotes the time needed for the level to fall by half in the phase considered. Higher therefore signals slow loss.
